These results are taken from PubChem BioAssay (NCI).

What all share (test): DTP human tumour cell line panel, 48 h
Experiment [1] has as its system HT29 colon.
The test system of experiment [2] is TK-10 renal.
Experiment [3] relates to OVCAR-3 ovarian.
Experiment [4] has as its system IGROV1 ovarian.
The subject of experiment [5] is SW-620 colon.
In experiment [6] the test system is K-562 leukemia.
The subject of experiment [7] is SNB-19 CNS.
The test system of experiment [8] is NCI-H460 lung.
For experiment [9], the system named is NCI-H522 lung.
The subject of experiment [10] is OVCAR-8 ovarian.

SMILES strings stand for the structures.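 Interpolation was linear, between the two tested concentrations surrounding the appropriate level; five concentrations were tested over 48 hours in 96-well plates. GI50 is the concentration that inhibits growth by half. At the TGI there is no net growth.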

Broadly, the TGI is the concentration giving total growth inhibition. Higher therefore signals less potent growth arrest. As to `Cc1nc2ccc(NC3OCC(O)C(O)C3O)cc2c(=O)n1-c1ccccc1` (centres undefined), the concentration for total growth inhibition (TGI) in [1], in experiment [2], in experiment [3], in experiment [4], in experiment [5] and in experiment [6] was greater than 100 µM in each case. Moreover, the TGI in experiment [7], in experiment [8], in [9] and in [10] was greater than 100 µM each time.

Take `O=S(=O)(/N=C(\NO)Nc1ccc(Cl)cc1)c1cc2ccccc2s1`: the TGI was 35 µM in experiment [1]; 41.1 µM in experiment [2]; 32.4 µM in experiment [3]; 28.7 µM in [4]; 82 µM in experiment [5]; greater than 100 µM in [6]. Moreover, the TGI in [7] is 31.2 µM; in [8] it was greater than 100 µM; in experiment [9] it was 27.2 µM; in [10], 30.7 µM.

As for `COc1ccc(-c2oc3cc(O)c(OC)c(O)c3c(=O)c2O)cc1`, the TGI in experiment [1] was greater than 100 µM; in experiment [2] it was greater than 100 µM; in experiment [3], greater than 100 µM; in [4], greater than 100 µM; in experiment [5] it was greater than 70.1 µM; in [6], greater than 53.5 µM. Moreover, the TGI was greater than 100 µM in experiment [7], 26.4 µM in experiment [8], 57.8 µM in experiment [9] and greater than 75.3 µM in [10].

Consider `CC1CN(CCO)CCN1c1ccccc1` (centres undefined), for which the TGI in experiment [1], in [2], in experiment [3], in experiment [4], in [5] and in experiment [6] was greater than 100 µM throughout. Also, the TGI in experiment [7], in [8], in experiment [9] and in experiment [10] was greater than 100 µM in each case.

By GI50 is commonly meant the concentration at which growth is held to half of that of the control. In the case of `COc1ccc([I+]c2ccc(OC)cc2)cc1`, the GI50 in experiment [1] is 5.54 µM; in experiment [3] it was 11.8 µM; in experiment [4], 15.7 µM; in experiment [5], 6.66 µM; in experiment [6], 2.74 µM; in experiment [7], 20.9 µM. Besides, the GI50 in experiment [8] is 5.28 µM; in experiment [9], 38.3 µM; in [10], 3.27 µM. Besides, the TGI in experiment [1], in experiment [2], in experiment [3], in [4], in experiment [5] and in experiment [6] was greater than 100 µM in each case. For the same compound, the total growth inhibition concentration (TGI) in [7], in experiment [8], in experiment [9] and in experiment [10] was greater than 100 µM each time.
